The target in data set [1] is Rhesus PDE2A3 (Macaca mulatta, UniProt B3VTJ2). Description: PDE2 fluorescence polarization (IMAP FP) inhibition assay, rhesus PDE2A3. The format is biochemical, rhesus macaque.
For data set [2], the target named is P-glycoprotein (P-gp, rat Mdr1a) (Rattus norvegicus, UniProt Q6PSM0). Description: P-gp transport, experimental BA/AB ratio, rat LLC-Mdr1a. The format is in vitro ADME. As to conditions: LLC-PK1; rat LLC-Mdrla; 1 μM substrate concentration. The text has this:
(§1) See Doan et al. “Passive permeability and P-glycoprotein-mediated efflux differentiate central nervous system (CNS) and non-CNS marketed drugs”, J. Pharm. Exper. […] Desirable human BA/AB ratio is less than 2.0. […] See, for example, Desai, et al. Integration of in Silico and in Vitro Tools for Scaffold Optimization during Drug Discovery: Predicting P-glycoprotein Efflux” Mol. Pharmac.

For data set [3], the target named is human PDE2A1 (Homo sapiens (Human), UniProt O00408). The data set can be described thus: PDE2 IMAP FP inhibition assay, human PDE2A1 (selectivity panel format). The format is biochemical. In short, it runs like this:
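Enzyme dosed to give about 20% substrate turnover acts for 60 min at room temperature on 50 nM FAM-cAMP plus 1000 nM cGMP (Tris pH 7.2, MgCl2, DTT, Tween-20 buffer). IMAP binding solution then stops the reaction; after 1 h, polarization is measured from parallel and perpendicular fluorescence.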

The target in data set [4] is P-glycoprotein (P-gp) (Homo sapiens (Human), UniProt P08183). The data set can be described thus: P-gp transport, experimental BA/AB ratio, human. The format is in vitro ADME. As to conditions: LLC-PK1, 1 μM substrate concentration.
Source text: as §1

[5] abbreviates: Lab A, read-out: Rhesus PDE2 Ki (nM) - Lab A.
Setting [6] is: Lab B, read-out: Rhesus PDE2 Ki (nM) - Lab B.
Setting [7] is: Lab B, read-out: Human PDE2 Ki (nM) - Lab B.
[8] abbreviates: Lab A, read-out: Human PDE2 Ki (nM) - Lab A.

Like-named read-outs stand apart in the source and are kept apart here.

Sequence of P-glycoprotein (P-gp) (P08183 whole entry): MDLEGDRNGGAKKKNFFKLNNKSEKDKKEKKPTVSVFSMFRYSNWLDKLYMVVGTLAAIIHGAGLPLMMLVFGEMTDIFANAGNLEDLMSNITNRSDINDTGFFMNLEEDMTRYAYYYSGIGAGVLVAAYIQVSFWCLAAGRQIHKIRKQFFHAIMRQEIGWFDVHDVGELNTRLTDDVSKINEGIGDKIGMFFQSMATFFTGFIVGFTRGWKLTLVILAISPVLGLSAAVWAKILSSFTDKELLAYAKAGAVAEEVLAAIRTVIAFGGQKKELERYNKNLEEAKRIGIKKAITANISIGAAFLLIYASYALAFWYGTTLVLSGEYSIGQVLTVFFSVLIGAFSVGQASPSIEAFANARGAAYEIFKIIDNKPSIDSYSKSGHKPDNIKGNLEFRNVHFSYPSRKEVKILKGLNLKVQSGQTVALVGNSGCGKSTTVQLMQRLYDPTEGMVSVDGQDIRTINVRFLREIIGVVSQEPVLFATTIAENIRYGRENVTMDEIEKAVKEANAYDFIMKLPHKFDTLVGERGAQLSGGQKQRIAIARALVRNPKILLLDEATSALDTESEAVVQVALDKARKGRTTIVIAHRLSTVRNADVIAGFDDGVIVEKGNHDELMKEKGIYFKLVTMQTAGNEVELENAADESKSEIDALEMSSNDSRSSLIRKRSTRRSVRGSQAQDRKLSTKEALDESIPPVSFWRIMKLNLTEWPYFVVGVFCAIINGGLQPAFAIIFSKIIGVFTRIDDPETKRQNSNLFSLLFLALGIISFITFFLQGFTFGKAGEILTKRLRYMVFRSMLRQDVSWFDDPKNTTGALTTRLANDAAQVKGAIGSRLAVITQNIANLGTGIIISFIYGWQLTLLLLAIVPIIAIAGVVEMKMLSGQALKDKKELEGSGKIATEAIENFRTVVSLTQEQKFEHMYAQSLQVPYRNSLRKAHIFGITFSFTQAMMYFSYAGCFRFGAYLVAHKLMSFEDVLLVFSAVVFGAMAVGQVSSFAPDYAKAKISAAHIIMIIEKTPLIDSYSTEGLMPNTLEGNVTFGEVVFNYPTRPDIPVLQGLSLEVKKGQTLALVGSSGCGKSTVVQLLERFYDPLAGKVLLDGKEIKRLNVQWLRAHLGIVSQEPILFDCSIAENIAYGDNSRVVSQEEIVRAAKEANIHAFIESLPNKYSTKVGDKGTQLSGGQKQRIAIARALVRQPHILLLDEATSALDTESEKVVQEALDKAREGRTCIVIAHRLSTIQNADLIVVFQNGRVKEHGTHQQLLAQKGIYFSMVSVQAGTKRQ
Sequence of Rhesus PDE2A3 (B3VTJ2 1-941): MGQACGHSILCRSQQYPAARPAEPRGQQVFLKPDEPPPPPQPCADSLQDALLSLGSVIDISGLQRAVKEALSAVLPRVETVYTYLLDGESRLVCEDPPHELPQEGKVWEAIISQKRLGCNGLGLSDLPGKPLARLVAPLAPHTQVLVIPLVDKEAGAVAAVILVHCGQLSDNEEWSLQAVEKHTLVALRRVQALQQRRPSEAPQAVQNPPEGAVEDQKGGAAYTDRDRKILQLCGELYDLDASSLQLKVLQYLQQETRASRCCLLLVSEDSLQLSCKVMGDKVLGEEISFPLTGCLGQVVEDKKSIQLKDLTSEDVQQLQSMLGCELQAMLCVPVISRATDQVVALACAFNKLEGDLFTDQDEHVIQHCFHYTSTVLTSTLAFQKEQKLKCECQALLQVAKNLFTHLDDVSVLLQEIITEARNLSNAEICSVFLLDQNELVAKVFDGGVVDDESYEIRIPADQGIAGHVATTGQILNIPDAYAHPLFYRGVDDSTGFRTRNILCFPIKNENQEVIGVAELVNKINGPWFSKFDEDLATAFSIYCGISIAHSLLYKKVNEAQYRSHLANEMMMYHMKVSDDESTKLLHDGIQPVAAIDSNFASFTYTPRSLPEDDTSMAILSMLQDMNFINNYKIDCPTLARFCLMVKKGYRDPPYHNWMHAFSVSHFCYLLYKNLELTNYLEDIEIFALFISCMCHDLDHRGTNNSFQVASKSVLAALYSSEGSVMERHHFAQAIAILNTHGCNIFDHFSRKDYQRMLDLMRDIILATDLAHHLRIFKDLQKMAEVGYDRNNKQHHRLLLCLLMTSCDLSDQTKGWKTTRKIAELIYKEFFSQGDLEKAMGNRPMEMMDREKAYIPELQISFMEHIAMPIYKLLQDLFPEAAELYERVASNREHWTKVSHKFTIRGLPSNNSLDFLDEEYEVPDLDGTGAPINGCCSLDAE
Sequence of P-glycoprotein (P-gp, rat Mdr1a) (Q6PSM0 1-1272): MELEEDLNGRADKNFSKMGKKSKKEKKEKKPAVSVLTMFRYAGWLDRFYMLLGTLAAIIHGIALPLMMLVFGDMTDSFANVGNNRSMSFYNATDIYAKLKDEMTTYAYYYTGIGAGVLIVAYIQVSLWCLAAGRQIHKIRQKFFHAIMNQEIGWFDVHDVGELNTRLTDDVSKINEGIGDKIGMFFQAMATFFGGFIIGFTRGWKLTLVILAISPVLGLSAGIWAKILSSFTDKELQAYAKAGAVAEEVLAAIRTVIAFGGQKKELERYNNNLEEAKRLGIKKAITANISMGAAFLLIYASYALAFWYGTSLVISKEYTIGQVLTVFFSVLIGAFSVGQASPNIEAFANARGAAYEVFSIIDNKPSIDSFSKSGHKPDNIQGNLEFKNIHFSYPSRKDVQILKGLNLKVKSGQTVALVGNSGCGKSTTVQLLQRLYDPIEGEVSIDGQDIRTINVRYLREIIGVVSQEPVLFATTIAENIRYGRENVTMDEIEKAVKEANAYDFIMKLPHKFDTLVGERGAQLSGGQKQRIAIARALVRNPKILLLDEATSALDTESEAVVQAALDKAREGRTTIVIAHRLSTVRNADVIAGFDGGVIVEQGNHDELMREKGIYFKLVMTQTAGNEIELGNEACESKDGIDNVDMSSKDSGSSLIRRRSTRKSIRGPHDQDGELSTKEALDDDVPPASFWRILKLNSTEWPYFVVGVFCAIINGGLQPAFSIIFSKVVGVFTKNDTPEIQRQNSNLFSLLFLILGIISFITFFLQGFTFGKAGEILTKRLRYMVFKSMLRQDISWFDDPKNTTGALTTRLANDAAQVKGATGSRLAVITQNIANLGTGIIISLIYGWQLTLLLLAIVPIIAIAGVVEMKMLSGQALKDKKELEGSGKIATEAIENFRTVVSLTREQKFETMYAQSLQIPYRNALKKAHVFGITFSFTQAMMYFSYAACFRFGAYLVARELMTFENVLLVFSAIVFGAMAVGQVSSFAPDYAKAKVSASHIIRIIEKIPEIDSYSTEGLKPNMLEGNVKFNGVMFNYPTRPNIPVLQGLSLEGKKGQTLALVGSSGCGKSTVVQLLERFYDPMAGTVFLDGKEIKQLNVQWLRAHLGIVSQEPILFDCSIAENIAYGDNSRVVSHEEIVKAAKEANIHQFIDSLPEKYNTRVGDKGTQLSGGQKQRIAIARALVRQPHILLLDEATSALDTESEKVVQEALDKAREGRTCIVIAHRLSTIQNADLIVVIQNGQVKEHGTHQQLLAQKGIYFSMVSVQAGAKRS
Sequence of human PDE2A1 (O00408 other isoform, or with tags, fused parts or gaps): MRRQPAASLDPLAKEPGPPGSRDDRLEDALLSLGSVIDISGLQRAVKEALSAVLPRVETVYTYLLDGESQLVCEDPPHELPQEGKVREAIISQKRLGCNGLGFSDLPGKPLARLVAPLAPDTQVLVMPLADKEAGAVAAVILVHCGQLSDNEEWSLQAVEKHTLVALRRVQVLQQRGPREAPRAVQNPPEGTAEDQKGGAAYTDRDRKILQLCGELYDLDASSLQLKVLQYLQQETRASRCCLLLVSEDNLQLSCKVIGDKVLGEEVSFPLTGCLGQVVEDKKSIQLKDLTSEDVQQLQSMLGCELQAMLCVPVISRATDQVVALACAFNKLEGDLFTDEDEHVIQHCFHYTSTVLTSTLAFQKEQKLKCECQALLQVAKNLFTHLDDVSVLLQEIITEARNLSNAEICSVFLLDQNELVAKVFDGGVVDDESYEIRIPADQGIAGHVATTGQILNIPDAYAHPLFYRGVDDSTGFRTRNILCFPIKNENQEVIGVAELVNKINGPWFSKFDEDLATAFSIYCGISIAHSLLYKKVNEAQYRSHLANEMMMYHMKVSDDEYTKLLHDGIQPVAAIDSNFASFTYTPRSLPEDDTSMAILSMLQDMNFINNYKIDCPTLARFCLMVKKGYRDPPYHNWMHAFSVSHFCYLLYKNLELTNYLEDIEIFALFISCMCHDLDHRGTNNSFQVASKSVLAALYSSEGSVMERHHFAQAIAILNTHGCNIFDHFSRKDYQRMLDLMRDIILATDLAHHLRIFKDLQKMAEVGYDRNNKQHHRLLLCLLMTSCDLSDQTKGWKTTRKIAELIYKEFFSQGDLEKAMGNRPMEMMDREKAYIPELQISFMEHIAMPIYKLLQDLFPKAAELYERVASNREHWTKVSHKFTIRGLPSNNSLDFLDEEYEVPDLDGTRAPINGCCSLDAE

For `CC(C)[C@@H](NC(=O)c1cc(=O)[nH]c(N2CC[C@@H](F)C2)n1)c1ccc(OC(F)(F)F)c(F)c1` [Example 163, 2-[(3R)-3-fluoropyrrolidin-1-yl]-N-{(R)-1-[3-fluoro-4-(trifluoromethoxy)phenyl]-2-methylpropyl}-6-oxo-1,6-dihydropyrimidine-4-carboxamide], the values for the Ki in data set [1] (setting [5]), in data set [1] (setting [6]) and in data set [3] (setting [7]) were 4.1 nM, 5 nM and 4.2 nM, respectively. Moreover, the efflux ratio at 1 μM in data set [2] was found to be 15.8; in data set [4], 0.7.

In the case of `CNc1nc(C(=O)N[C@@H](c2ccc(SC(F)(F)F)c(F)c2)C(C)C)cc(=O)[nH]1` [Example 155, N-[(1R)-1-{3-fluoro-4-[(trifluoromethyl)sulfanyl]phenyl}-2-methylpropyl]-2-(methylamino)-6-oxo-1,6-dihydropyrimidine-4-carboxamide], the Ki in data set [1] (setting [5]) worked out at 4.3 nM; in data set [3] (setting [8]), 1.2 nM. The results for the efflux ratio at 1 μM in data set [2] and in data set [4] were 9 and 4.2, respectively.

With `CC(C)[C@@H](NC(=O)c1cc(=O)[nH]c(N2CCCC2)n1)c1ccc(SC(F)(F)F)cc1` [Example 147, N-[(1R)-2-methyl-1-{4-[(trifluoromethyl)sulfanyl]phenyl}propyl]-6-oxo-2-pyrrolidin-1-yl-1,6-dihydropyrimidine-4-carboxamide], the Ki in data set [1] (setting [5]) was 0.19 nM; in data set [1] (setting [6]), 0.15 nM; in data set [3] (setting [7]), 0.26 nM. Further, the efflux ratio at 1 μM in data set [2] is 5.9; in data set [4], 0.7.

For `CN(C)c1nc(C(=O)N[C@@H](c2ccc(OC(F)(F)F)cc2)C(C)(C)C)cc(=O)[nH]1` [Example 100, 2-(dimethylamino)-N-{(1R)-2,2-dimethyl-1-[4-(trifluoromethoxy)phenyl]propyl}-6-oxo-1,6-dihydropyrimidine-4-carboxamide], the Ki in data set [1] (setting [6]) is 0.17 nM; in data set [3] (setting [7]), 0.21 nM. Further, the figures for the efflux ratio at 1 μM in data set [2] and in data set [4] were 2.9 and 0.7, respectively.

For the molecule `C[C@@H](NC(=O)c1cc(=O)[nH]c(N2CCCC2)n1)c1ccc(SC(F)(F)F)cc1` [Example 146, 6-oxo-2-pyrrolidin-1-yl-N-[(1R)-1-{4-[(trifluoromethyl)sulfanyl]phenyl}ethyl]-1,6-dihydro-pyrimidine-4-carboxamide], the Ki is 0.43 nM in data set [1] (setting [5]) and 0.36 nM in data set [3] (setting [8]). The results for the efflux ratio at 1 μM in data set [2] and in data set [4] were 5.4 and 0.9, respectively.

Take `CN(C)c1nc(C(=O)N[C@@H](c2ccc(OC(F)F)c(F)c2)C2(C)CC2)cc(=O)[nH]1` [Example 55, N-[(R)-[4-(difluoromethoxy)-3-fluorophenyl](1-methylcyclopropyl)methyl]-2-(dimethylamino)-6-oxo-1,6-dihydropyrimidine-4-carboxamide]: the inhibitory constant (Ki) is 1.4 nM in data set [1] (setting [6]) and 0.98 nM in data set [3] (setting [7]). The figures for the efflux ratio at 1 μM in data set [2] and in data set [4] were 3.4 and 0.6, respectively.

Regarding `CC[C@@H](NC(=O)c1cc(=O)[nH]c(N(C)C)n1)c1ccc(SC(F)(F)F)cc1` [Example 88, 2-(dimethylamino)-6-oxo-N-[(1R)-1-{4-[(trifluoromethyl)sulfanyl]phenyl}propyl]-1,6-dihydropyrimidine-4-carboxamide], the Ki was 0.61 nM in data set [1] (setting [5]), 0.51 nM in data set [1] (setting [6]), 5.05 nM in data set [3] (setting [8]) and 0.69 nM in data set [3] (setting [7]). Besides, the efflux ratio at 1 μM amounted to 1.8 in data set [2] and 0.3 in data set [4].

Turning to `CC(C)[C@@H](NC(=O)c1cc(=O)[nH]c(N2CC[C@H](F)C2)n1)c1ccc(OC(F)(F)F)c(F)c1` [Example 162, 2-[(3S)-3-fluoropyrrolidin-1-yl]-N-{(1R)-1-[3-fluoro-4-(trifluoromethoxy)phenyl]-2-methylpropyl}-6-oxo-1,6-dihydropyrimidine-4-carboxamide], the values for the Ki in data set [1] (setting [5]) and in data set [3] (setting [7]) were 0.51 nM and 0.61 nM, respectively. The figures for the efflux ratio at 1 μM in data set [2] and in data set [4] were 17.9 and 2.5, respectively.

Turning to `CNc1nc(C(=O)N[C@@H](c2ccc(OC(F)(F)F)c(F)c2)C(C)C)cc(=O)[nH]1` [Example 151, N-{(1R)-1-[3-fluoro-4-(trifluoromethoxy)phenyl]-2-methylpropyl}-2-(methylamino)-6-oxo-1,6-dihydro-pyrimidine-4-carboxamide], the Ki stood at 4.7 nM in data set [1] (setting [5]) and 2.8 nM in data set [3] (setting [8]). For the same molecule, the efflux ratio at 1 μM in data set [2] was 18.7; in data set [4] it was 6.5.

`C[C@@H](NC(=O)c1cc(=O)[nH]c(N(C)C)n1)c1ccc(C2CC2)c(F)c1` [Example 40, N-[(1R)-1-(4-cyclopropyl-3-fluorophenyl)ethyl]-2-(dimethylamino)-6-oxo-1,6-dihydropyrimidine-4-carboxamide]: the figures for the Ki in data set [1] (setting [6]) and in data set [3] (setting [7]) were 0.87 nM and 1.02 nM, respectively. Further, the figures for the efflux ratio at 1 μM in data set [2] and in data set [4] were 2.4 and 0.5, respectively.

In the case of `O=C(N[C@@H](c1ccc(C(F)(F)F)cc1)C1CC1)c1cc(=O)[nH]c(N2CC[C@H](F)C2)n1` [Example 167, N-{(R)-cyclopropyl[4-(trifluoromethyl)phenyl]methyl}-2-[(3S)-3-fluoropyrrolidin-1-yl]-6-oxo-1,6-dihydropyrimidine-4-carboxamide], the Ki amounted to 1.4 nM in data set [1] (setting [6]) and 2.3 nM in data set [3] (setting [7]). Also, the efflux ratio at 1 μM was 27.4 in data set [2] and 1.9 in data set [4].

For the molecule `CC(C)[C@@H](NC(=O)c1cc(=O)[nH]c(N)n1)c1ccc(OC(F)(F)F)c(F)c1` [Example 152, 2-amino-N-{(1R)-1-[3-fluoro-4-(trifluoromethoxy)phenyl]-2-methylpropyl}-6-oxo-1,6-dihydropyrimidine-4-carboxamide], the Ki came to 33 nM in data set [1] (setting [5]) and 19 nM in data set [3] (setting [8]). Besides, the efflux ratio at 1 μM was determined as 29.2 in data set [2] and 11.6 in data set [4].

For the molecule `C[C@@H](NC(=O)c1cc(=O)[nH]c(N2CC(F)C2)n1)c1ccc(C(F)(F)F)cc1` [Example 23, 2-(3-Fluoroazetidin-1-yl)-6-oxo-N-{(1R)-1-[4-(trifluoromethyl)phenyl]ethyl}-1,6-dihydropyrimidine-4-carboxamide], the Ki in data set [1] (setting [5]) stood at 27 nM; in data set [3] (setting [8]) it was 16 nM. In addition, the efflux ratio at 1 μM in data set [2] worked out at 7.6; in data set [4], 1.4.

For `CC(C)C(C)(NC(=O)c1cc(=O)[nH]c(N(C)C)n1)c1ccc(S(F)(F)(F)(F)F)cc1` (single isomer, unassigned) [Example 173, (S)- or (R)-2-(dimethylamino)-N-{1,2-dimethyl-1-[4-(pentafluoro-λ^6-sulfanyl)phenyl]propyl}-6-oxo-1,6-dihydropyrimidine-4-carboxamide], the Ki came out at 6.6 nM in data set [1] (Rhesus PDE2 Ki (nM) - Lab B, Lab B) and 6.5 nM in data set [3] (setting [7]). Moreover, the efflux ratio at 1 μM in data set [2] turned out to be 3.6; in data set [4], 0.8.

With `CC(C)[C@@H](NC(=O)c1cc(=O)[nH]c(N(C)C)n1)c1ccc(OC(F)F)c(F)c1` [Example 48, N-{(1R)-1-[4-(difluoromethoxy)-3-fluorophenyl]-2-methylpropyl}-2-(dimethylamino)-6-oxo-1,6-dihydropyrimidine-4-carboxamide], the figures for the Ki in data set [1] (setting [6]) and in data set [3] (setting [7]) were 1.9 nM and 1.7 nM, respectively. The efflux ratio at 1 μM in data set [2] was found to be 6.4; in data set [4] it was 1.5.

Consider `O=C(N[C@@H](c1ccc(OC(F)(F)F)cc1)C1CC1)c1cc(=O)[nH]c(N2CCCC2)n1` [Example 114, N-{(R)-cyclopropyl[4-(trifluoromethoxy)phenyl]methyl}-6-oxo-2-pyrrolidin-1-yl-1,6-dihydropyrimidine-4-carboxamide], for which the Ki in data set [1] (setting [5]) came to 0.94 nM; in data set [1] (setting [6]), 1.5 nM; in data set [3] (setting [7]), 1.5 nM. The efflux ratio at 1 μM was determined as 4 in data set [2] and 0.5 in data set [4].

Turning to `CC(C)[C@@H](NC(=O)c1cc(=O)[nH]c(N2CCC2)n1)c1ccc(SC(F)(F)F)cc1` [Example 148, 2-azetidin-1-yl-N-[(1R)-2-methyl-1-{4-[(trifluoromethyl)sulfanyl]phenyl}propyl]-6-oxo-1,6-dihydropyrimidine-4-carboxamide], the Ki was determined as 0.42 nM in data set [1] (setting [5]) and 0.2 nM in data set [3] (setting [8]). The efflux ratio at 1 μM in data set [2] came out at 9.5; in data set [4] it was 1.3.

On to `CN(C)c1nc(C(=O)N[C@@H](c2ccc(OC(F)(F)F)c(F)c2)C(C)(C)C)cc(=O)[nH]1` [Example 101, 2-(dimethylamino)-N-{(1R)-1-[3-fluoro-4-(trifluoromethoxy)phenyl]-2,2-dimethylpropyl}-6-oxo-1,6-dihydropyrimidine-4-carboxamide], for which the Ki is 0.14 nM in data set [1] (setting [6]) and 0.12 nM in data set [3] (setting [7]). Besides, the results for the efflux ratio at 1 μM in data set [2] and in data set [4] were 10.1 and 1.7, respectively.

Take `CN(C)c1nc(C(=O)N[C@@H](c2ccc(OC(F)F)cc2)C(C)(C)C)cc(=O)[nH]1` [Example 34, N-{(1R)-1-[4-(difluoromethoxy)phenyl]-2,2-dimethylpropyl}-2-(dimethylamino)-6-oxo-1,6-dihydropyrimidine-4-carboxamide]: the Ki is 0.46 nM in data set [1] (setting [6]) and 0.39 nM in data set [3] (setting [7]). The efflux ratio at 1 μM in data set [2] turned out to be 12.7; in data set [4], 2.

The values above are taken from patent US10285989B2, “Pyrimidinone amide compounds as PDE2 inhibitors” (Merck Sharp & Dohme Corp., priority 2015, dated 2019).
